IC50 data for 26 compounds are collected here from patent US12187684B2, “Benzimidazole derivatives as modulators of retinoid-related orphan receptor gamma (RORγ) and pharmaceutical use thereof” (Jiangsu Hengrui Medicine Co., Ltd., priority 2018, dated 2025).

In the experiment the target is T1, RORγ LBD-GST tagged (Homo sapiens, UniProt P51449).
T1 construct: RORγ LBD-GST tagged (Cat No. RORC-114H, Creative Biomart); purchased Creative Biomart RORC-114H
T1 sequence (P51449 269-508 limits assumed): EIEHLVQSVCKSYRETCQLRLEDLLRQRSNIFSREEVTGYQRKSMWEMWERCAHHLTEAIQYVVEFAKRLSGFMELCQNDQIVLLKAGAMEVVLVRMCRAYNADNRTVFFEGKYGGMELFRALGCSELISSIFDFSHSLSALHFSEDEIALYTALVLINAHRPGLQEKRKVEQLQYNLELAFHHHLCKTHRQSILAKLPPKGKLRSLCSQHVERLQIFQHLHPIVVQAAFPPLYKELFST
Nature of the experiment: LanthaScreen TR-FRET RORγ coactivator assay. It counts as biochemical. The note with it: Fluorescein-D22 coactivator peptide, 1 hour room temperature. The source says: LanthaScreen TR-FRET Retinoid-Related Orphan Receptor Gamma (RORγ) Coactivator Assay Materials and Reagents • 1. […] Fluorescein-D22 coactivator peptide (Cat No. PV4386, Invitrogen) • 3. LanthaScreen™ Tb anti-GST antibody (Cat No. PV3550, Invitrogen) • 4. TR-FRET coregulatory buffer D (Cat No, PV4420, Invitrogen) • 5. DTT (Cat No. P2325, Fisher) • 6. […] Tecan Infinite M1000 plate reader (Tecan) Experimental Procedure Prepare Complete TR-FRET Coregulator Buffer D by adding 1 M DTT to TR-FRET Coregulator Buffer D to the final concentration of 5 mM DTT. Make compound dilution in Complete TR-FRET Coregulator Buffer D. Highest dose is 3 μM, 7-folder dilution for total 7 doses. Add 10 μL to each well of a 384-well plate. For the negative and positive controls, add 10 μL of Complete TR-FRET Coregulator Buffer D. Prepare RORγ LBD using Complete TR-FRET Coregulator Buffer D. The final concentration of RORγ LBD is 25 ng/reaction. Add 5 μL RORγ LBD to all the wells of the 384-well assay plate except negative wells which adding 5 μL Complete TR-FRET Coregulator Buffer D. Prepare a solution containing 0.6 μM Fluorescein-D22 and 8 nM Tb anti-GST antibody using Complete TR-FRET Coregulator Buffer D. Add 5 μL to all wells of the 384-well assay plate. Briefly and gently mix the 384-well plate on a plate shaker and incubate at room temperature protected from light for 1 hour. The plate may be sealed with a cover to minimize evaporation. Read the plate at wavelengths of 520 nm and 495 nm on Tecan Infinite M1000. IC50 values were calculated using GraphPad Prism by plotting the logarithm of compounds concentration versus percent inhibition.
On to `CCS(=O)(=O)c1ccc(C(O)c2nc3cc(-c4ccccc4OC(F)(F)F)c(F)cc3[nH]2)cc1` (centres unmarked) [Example 121, (4-(ethylsulfonyl)phenyl)(6-fluoro-5-(2-(trifluoromethoxy)phenyl)-1H-benzo[d]imidazol-2-yl)methanol], for which the midpoint of inhibition, the IC50, lay at 0.966 µM. In turn, `CCS(=O)(=O)c1ccc(C(N)c2nc3c(Cl)c(-c4ccccc4OC(F)(F)F)c(Cl)cc3[nH]2)cc1` (centres unmarked) [Example 43, (4,6-dichloro-5-(2-(trifluoromethoxy)phenyl)-1H-benzo[d]imidazol-2-yl)(4-(ethylsulfonyl)phenyl)methanamine] yielded an IC50 of 0.656 µM.

Take `CCS(=O)(=O)c1ccc(C(CO)c2nc3c(Cl)c(-c4ccccc4C(C)C)c(Cl)cc3[nH]2)cc1` (centres unmarked) [Example 37, 2-(4,6-dichloro-5-(2-isopropylphenyl)-1H-benzo[d]imidazol-2-yl)-2-(4-(ethylsulfonyl)phenyl)ethanol]: inhibition was half-maximal at 0.433 µM (IC50). To `CS(=O)(=O)c1ccc(C(CO)c2nc3c(Cl)c(-c4ccccc4OC(F)(F)F)c(Cl)cc3[nH]2)cc1` (centres unmarked) [Example 57, 2-(4,6-dichloro-5-(2-(trifluoromethoxy)phenyl)-1H-benzo[d]imidazol-2-yl)-2-(4-(methylsulfonyl)phenyl)ethanol] belongs 0.187 µM. In the case of `CCS(=O)(=O)c1ccc(C(CO)c2nc3c(Cl)c(-c4ccccc4F)c(Cl)cc3[nH]2)cc1` (centres unmarked) [Example 11, 2-(4,6-dichloro-5-(2-fluorophenyl)-1H-benzo[d]imidazol-2-yl)-2-(4-(ethylsulfonyl)phenyl)ethanol] it was 0.242 µM; in that of `O=S(=O)(CC1CC1)c1ccc(C(CCO)c2nc3cc(-c4ccccc4OC(F)F)c(Cl)cc3[nH]2)cc1` (single isomer, unassigned) [3-(6-chloro-5-(2-(difluoromethoxy)phenyl)-1H-benzo[d]imidazol-2-yl)-3-(4-((cyclopropylmethyl)sulfonyl)phenyl)propan-1-ol], 0.081 µM.

Compound `CS(=O)(=O)c1ccc(C(O)c2nc3c(Cl)c(-c4ccccc4OC(F)F)c(Cl)cc3[nH]2)cc1` (centres unmarked) [Example 49, (4,6-dichloro-5-(2-(difluoromethoxy)phenyl)-1H-benzo[d]imidazol-2-yl)(4-(methylsulfonyl)phenyl)methanol] came in with an IC50 of 0.255 µM. To `CCS(=O)(=O)c1ccc(Cc2nc3c(F)c(-c4ccccc4C(F)(F)F)c(F)cc3[nH]2)cc1` [Example 111, 2-(4-(ethylsulfonyl)benzyl)-4,6-difluoro-5-(2-(trifluoromethyl)phenyl)-1H-benzo[d]imidazole] belongs 0.06 µM; to `O=S(=O)(CCF)c1ccc(C(CO)c2nc3c(Cl)c(-c4ccccc4OC(F)(F)F)c(Cl)cc3[nH]2)cc1` (centres unmarked) [Example 62, 2-(4,6-dichloro-5-(2-(trifluoromethoxy)phenyl)-1H-benzo[d]imidazol-2-yl)-2-(4-((2-fluoroethyl)sulfonyl)phenyl)ethanol], 0.154 µM.

On to `CCS(=O)(=O)c1ccc(C(CO)c2nc3c(Cl)c(-c4ccccc4C#N)c(Cl)cc3[nH]2)cc1` (centres unmarked) [Example 22, 2-(4,6-dichloro-2-(1-(4-(ethylsulfonyl)phenyl)-2-hydroxyethyl)-1H-benzo[d]imidazol-5-yl)benzonitrile], for which the IC50 was 0.219 µM. The compound `O=S(=O)(CC1CC1)c1ccc(Cc2nc3c(Cl)c(-c4ccccc4Cl)c(Cl)cc3[nH]2)cc1` [Example 93, 4,6-dichloro-5-(2-chlorophenyl)-2-(4-((cyclopropylmethyl)sulfonyl)benzyl)-1H-benzo[d]imidazole] came in with an IC50 of 0.075 µM. In the case of `O=S(=O)(NC1CC1)c1ccc(Cc2nc3c(Cl)c(-c4ccccc4OC(F)(F)F)c(Cl)cc3[nH]2)cc1` [Example 122, N-cyclopropyl-4-((4,6-dichloro-5-(2-(trifluoromethoxy)phenyl)-1H-benzo[d]imidazol-2-yl)methyl)benzenesulfonamide] it was 0.049 µM; in that of `CS(=O)(=O)c1ccc(Cc2nc3c(Cl)c(-c4ccccc4OC(F)F)c(Cl)cc3[nH]2)cc1` [Example 47, 4,6-dichloro-5-(2-(difluoromethoxy)phenyl)-2-(4-(methylsulfonyl)benzyl)-1H-benzo[d]imidazole], 0.196 µM; in that of `CCS(=O)(=O)c1ccc(C(CO)c2nc3c(F)c(-c4ccccc4)c(F)cc3[nH]2)cc1` (centres unmarked) [Example 114, 2-(4,6-difluoro-5-phenyl-1H-benzo[d]imidazol-2-yl)-2-(4-(ethylsulfonyl)phenyl)ethanol], 0.564 µM. To `NC(=O)CC(c1ccc(S(=O)(=O)CC2CC2)cc1)c1nc2cc(Cl)c(N3CCC(F)(F)CC3)c(Cl)c2[nH]1` (single isomer, unassigned) [3-(4-((cyclopropylmethyl)sulfonyl)phenyl)-3-(5,7-dichloro-6-(4,4-difluoropiperidin-1-yl)-1H-benzo[d]imidazol-2-yl)propanamide] belongs 0.014 µM. In the case of `O=S(=O)(CC1CC1)c1ccc(C(O)c2nc3c(Cl)c(-c4ccccc4Cl)c(Cl)cc3[nH]2)cc1` (centres unmarked) [Example 94, (4-((cyclopropylmethyl)sulfonyl)phenyl)(4,6-dichloro-5-(2-chlorophenyl)-1H-benzo[d]imidazol-2-yl)methanol] it was 0.023 µM. As to `O=S(=O)(CC1CC1)c1ccc(C(CO)c2nc3c(Cl)c(-c4ccccc4OC(F)(F)F)c(Cl)cc3[nH]2)c(Cl)c1` (centres unmarked) [Example 91, 2-(2-chloro-4-((cyclopropylmethyl)sulfonyl)phenyl)-2-(4,6-dichloro-5-(2-(trifluoromethoxy)phenyl)-1H-benzo[d]imidazol-2-yl)ethanol], half-maximal inhibition (IC50) was put at 0.14 µM. In the case of `CCS(=O)(=O)c1ccc(Cc2nc3c(Cl)c(-c4ccccc4OC(C)C)c(Cl)cc3[nH]2)cc1` [Example 8, 4,6-dichloro-2-(4-(ethylsulfonyl)benzyl)-5-(2-isopropoxyphenyl)-1H-benzo[d]imidazole] it was 0.903 µM; in that of `CCS(=O)(=O)c1ccc(C(O)c2nc3c(F)c(-c4ccccc4OC(F)(F)F)c(F)cc3[nH]2)cc1` (centres unmarked) [Example 110, (4,6-difluoro-5-(2-(trifluoromethoxy)phenyl)-1H-benzo[d]imidazol-2-yl)(4-(ethylsulfonyl)phenyl)methanol], 0.698 µM. In the case of `CS(=O)(=O)c1ccc(C(CO)c2nc3c(Cl)c(-c4ccccc4OC(F)(F)F)c(Cl)cc3[nH]2)c(Cl)c1` (centres unmarked) [Example 102, 2-(2-chloro-4-(methylsulfonyl)phenyl)-2-(4,6-dichloro-5-(2-(trifluoromethoxy)phenyl)-1H-benzo[d]imidazol-2-yl)ethanol] it was 0.062 µM; in that of `CCS(=O)(=O)c1ccc(Cc2nc3c(C)c(-c4ccccc4C(F)(F)F)c(C)cc3[nH]2)cc1` [Example 115, 2-(4-(ethylsulfonyl)benzyl)-4,6-dimethyl-5-(2-(trifluoromethyl)phenyl)-1H-benzo[d]imidazole], 0.171 µM.

`O=S(=O)(CC(F)(F)F)c1ccc(Cc2nc3c(Cl)c(-c4ccccc4OC(F)(F)F)c(Cl)cc3[nH]2)cc1` [Example 59, 4,6-dichloro-2-(4-((2,2,2-trifluoroethyl)sulfonyl)benzyl)-5-(2-(trifluoromethoxy)phenyl)-1H-benzo[d]imidazole]: the IC50 is 0.433 µM. To `CCS(=O)(=O)c1ccc(Cc2nc3c(Cl)c(-c4ccccc4C(C)C)c(Cl)cc3[nH]2)cc1` [Example 36, 4,6-dichloro-2-(4-(ethylsulfonyl)benzyl)-5-(2-isopropylphenyl)-1H-benzol[d]imidazole] belongs 0.348 µM; to `COCCS(=O)(=O)c1ccc(Cc2nc3c(Cl)c(-c4ccccc4OC(F)(F)F)c(Cl)cc3[nH]2)cc1` [Example 53, 4,6-dichloro-2-(4-((2-methoxyethyl)sulfonyl)benzyl)-5-(2-(trifluoromethoxy)phenyl)-1H-benzo[d]imidazole], 0.575 µM. For `CCCS(=O)(=O)c1ccc(Cc2nc3c(Cl)c(-c4ccccc4OC(F)(F)F)c(Cl)cc3[nH]2)cc1` [Example 50, 4,6-dichloro-2-(4-(propylsulfonyl)benzyl)-5-(2-(trifluoromethoxy)phenyl)-1H-benzo[d]imidazole], inhibition was half-maximal at 0.284 µM (IC50). On to `CS(=O)(=O)c1ccc(Cc2nc3c(Cl)c(-c4ccccc4C(F)(F)F)c(Cl)cc3[nH]2)cc1` [Example 45, 4,6-dichloro-2-(4-(methylsulfonyl)benzyl)-5-(2-(trifluoromethyl)phenyl)-1H-benzo[d]imidazole], for which the IC50 worked out at 0.535 µM.
